Data set [1] relates to Human immunodeficiency virus 1. Kind of data set: Anti-HIV activity in cell culture assay expressed as IC50 values. The data set is classed as functional, organism-based.
The test system of data set [2] is Human immunodeficiency virus 1. Put plainly: Inhibition against HIV replication in cell culture at 20 ug/mL. In kind it is functional. Conditions: Human immunodeficiency virus 1.
For data set [3], the system named is Human immunodeficiency virus 1. Put plainly: Anti-HIV activity in cell culture assay expressed as EC50 values. The data set is classed as functional, organism-based. To be noted: Human immunodeficiency virus 1.
The target in data set [4] is Human immunodeficiency virus type 1 reverse transcriptase (Human immunodeficiency virus 1) (UniProt Q72547). Put plainly: Inhibition against HIV- reverse transcriptase in cell culture at 20 ug/mL.
Data set [5] deals with Human immunodeficiency virus 1. Put plainly: Therapeutic index was determined. Conditions: read-out: Therapeutic index.

Take `O=C(O[C@@H]1[C@@H](c2c(O)cc(O)c3c2O[C@H](c2ccc(O)c(O)c2)[C@H](OC(=O)c2cc(O)c(O)c(O)c2)C3)c2c(O)cc(O)cc2O[C@@H]1c1ccc(O)c(O)c1)c1cc(O)c(O)c(O)c1`: the IC50 in data set [1] (Human immunodeficiency virus 1) is more than 25 µM. In addition, the inhibition at 20 µg/mL in data set [2] worked out at 90%. Moreover, the EC50 in data set [3] was determined as 14 µM. This compound returned an inhibition in data set [4] of 0%.

`O=C(OC[C@H]1O[C@@H](OC(=O)c2cc(O)c(O)c(O)c2)[C@H](OC(=O)c2cc(O)c(O)c(O)c2)[C@@H](OC(=O)c2cc(O)c(O)c(O)c2)[C@@H]1OC(=O)c1cc(O)c(O)c(O)c1)c1cc(O)c(O)c(O)c1` (stereo in doubt; 10) registered an inhibition in data set [4] of 2%.

Regarding `O=C1c2c(O)cc(O)cc2O[C@H](c2ccc(O)c(O)c2)[C@H]1O` [(+)-TAXIFOLIN], in data set [1] (Human immunodeficiency virus 1), the midpoint of inhibition, the IC50, lay at 45 µM. Besides, the inhibition at 20 µg/mL in data set [2] amounted to 40%. Also, the EC50 in data set [3] was found to be 45 µM. Besides, in data set [4], the inhibition came out at 22%. In addition, the selectivity ratio in data set [5] came out at 1.

In data set [1] (Human immunodeficiency virus 1), `O=C(OC[C@H]1OC(O)[C@@](O)(COC(=O)c2cc(O)c(O)c(O)c2)[C@@H]1OC(=O)c1cc(O)c(O)c(O)c1)c1cc(O)c(O)c(O)c1` (stereo partly specified) returned an IC50 of 40 µM. The compound further displayed an inhibition at 20 µg/mL in data set [2] of 30%. For the same compound, a half-maximal response in data set [3] (EC50) required 45 µM. Further, the inhibition in data set [4] worked out at 25%. Moreover, the selectivity ratio in data set [5] worked out at 0.9.

In data set [1] (Human immunodeficiency virus 1), `Oc1cc(O)c2c(c1)O[C@H](c1ccc(O)c(O)c1)[C@H](O)[C@H]2c1c(O)cc(O)c2c1O[C@@]1(c3ccc(O)c(O)c3)Oc3cc(O)c4c(c3[C@@H]2[C@H]1O)O[C@H](c1ccc(O)c(O)c1)[C@H](O)[C@H]4c1c(O)cc(O)c2c1O[C@H](c1ccc(O)c(O)c1)[C@H](O)C2` [CINNAMTANNIN B2] came in with an IC50 of more than 25 µM. At 20 µg/mL the inhibition in data set [2] was 73%. The compound further gave an EC50 in data set [3] of 15 µM. In addition, in data set [4], the inhibition is 19%. The selectivity ratio in data set [5] is more than 1.7.

Take `O=C(OC[C@H]1O[C@@H](OC(=O)c2cc(O)c(O)c(O)c2)[C@H](OC(=O)c2cc(O)c(O)c(O)c2)[C@@H](OC(=O)c2cc(O)c(O)c(O)c2)[C@@H]1OC(=O)c1cc(O)c(O)c(O)c1)c1cc(O)c(O)c(O)c1` (stereo in doubt; 11) [PENTAGALLOYL GLUCOSE]: the midpoint of inhibition in data set [1], the IC50, lay at 45 µM. Further, in data set [2], the inhibition at 20 µg/mL is 65%. For the same compound, a half-maximal effect in data set [3] (EC50) was put at 18 µM. For the same compound, the selectivity ratio in data set [5] was 2.5.

As to `O=C(O[C@@H]1Cc2c(O)cc(O)cc2O[C@@H]1c1ccc(O)c(O)c1)c1cc(O)c(O)c(O)c1` [EPICATECHIN GALLATE], the 50% inhibitory concentration (IC50) in data set [1] (Human immunodeficiency virus 1) was more than 25 µM. Further, in data set [2], the inhibition at 20 µg/mL amounted to 40%. Besides, the concentration for a half-maximal effect (EC50) in data set [3] was more than 25 µM. In data set [4], this compound registered an inhibition of 5%.

`Oc1cc(O)c2c(c1)O[C@@]1(c3ccc(O)c(O)c3)Oc3cc(O)c4c(c3[C@@H]2[C@H]1O)O[C@H](c1ccc(O)c(O)c1)[C@H](O)C4` [PROANTHOCYANIDIN A2]: the IC50 in data set [1] (Human immunodeficiency virus 1) is more than 25 µM. For the same compound, testing at 20 µg/mL in data set [2] gave an inhibition of 30%. The same compound showed an EC50 in data set [3] of more than 25 µM. In data set [4], this compound displayed an inhibition of 18%.

As for `Oc1cc(O)c2c(c1)O[C@H](c1ccc(O)c(O)c1)[C@H](O)[C@H]2c1c(O)cc(O)c2c1O[C@H](c1ccc(O)c(O)c1)[C@H](O)C2` [PROCYANIDIN B2], the IC50 in data set [1] (Human immunodeficiency virus 1) was more than 25 µM. For the same compound, at 20 µg/mL the inhibition in data set [2] was 40%. In data set [3], this compound had a concentration for a half-maximal effect (EC50) of more than 25 µM. In data set [4], the inhibition was 21%.

`O=C(OC[C@H]1O[C@@H](OC(=O)c2cc(O)c(O)c(O)c2)[C@H](OC(=O)c2cc(O)c(O)c(O)c2)[C@@H](OC(=O)c2cc(O)c(O)c(O)c2)[C@@H]1OC(=O)c1cc(O)c(O)c(O)c1)c1cc(O)c(O)c(O)c1` (stereo in doubt; 11): the inhibition in data set [4] came to 0%.

Take `O=C(/C=C/c1ccc(O)c2c1[C@H](C(=O)O[C@H](Cc1ccc(O)c(O)c1)C(=O)O)[C@@H](c1ccc(O)c(O)c1)O2)O[C@H](Cc1ccc(O)c(O)c1)C(=O)O` [MAGNESIUM LITHOSPERMATE B]: in data set [1] (Human immunodeficiency virus 1), the IC50 was more than 25 µM. Besides, testing at 20 µg/mL in data set [2] gave an inhibition of 35%. Besides, the EC50 in data set [3] is more than 25 µM. The inhibition in data set [4] was found to be 18%.

What is called IC50 is the concentration that inhibits the measured activity by half. A higher IC50 goes with weaker potency in that assay. What is called inhibition is the relative decrease from the control value, in per cent. The low end stands for a weak effect, the high end for a strong effect. As a reminder, the EC50 is the concentration at which the effect is half-maximal.

The record behind these values is ChEMBL document CHEMBL1126373, “HIV and reverse transcriptase inhibition by tannins” (Bioorg Med Chem Lett, 1992).
